This note sets out measurements from patent US9085603B2, “Progesterone receptor antagonists” (Bayer Intellectual Property GmbH, priority 2010, dated 2015).

In this test the target is T1, human progesterone receptor A (Homo sapiens, UniProt P06401).
T1 construct: expressed in transfected cells; host or cells: SK-N-MC human neuroblastoma cells, stably transfected with pRChPR-A-neo and pMMTV-LUC
T1 sequence (P06401 1-769 isoform P06401-2): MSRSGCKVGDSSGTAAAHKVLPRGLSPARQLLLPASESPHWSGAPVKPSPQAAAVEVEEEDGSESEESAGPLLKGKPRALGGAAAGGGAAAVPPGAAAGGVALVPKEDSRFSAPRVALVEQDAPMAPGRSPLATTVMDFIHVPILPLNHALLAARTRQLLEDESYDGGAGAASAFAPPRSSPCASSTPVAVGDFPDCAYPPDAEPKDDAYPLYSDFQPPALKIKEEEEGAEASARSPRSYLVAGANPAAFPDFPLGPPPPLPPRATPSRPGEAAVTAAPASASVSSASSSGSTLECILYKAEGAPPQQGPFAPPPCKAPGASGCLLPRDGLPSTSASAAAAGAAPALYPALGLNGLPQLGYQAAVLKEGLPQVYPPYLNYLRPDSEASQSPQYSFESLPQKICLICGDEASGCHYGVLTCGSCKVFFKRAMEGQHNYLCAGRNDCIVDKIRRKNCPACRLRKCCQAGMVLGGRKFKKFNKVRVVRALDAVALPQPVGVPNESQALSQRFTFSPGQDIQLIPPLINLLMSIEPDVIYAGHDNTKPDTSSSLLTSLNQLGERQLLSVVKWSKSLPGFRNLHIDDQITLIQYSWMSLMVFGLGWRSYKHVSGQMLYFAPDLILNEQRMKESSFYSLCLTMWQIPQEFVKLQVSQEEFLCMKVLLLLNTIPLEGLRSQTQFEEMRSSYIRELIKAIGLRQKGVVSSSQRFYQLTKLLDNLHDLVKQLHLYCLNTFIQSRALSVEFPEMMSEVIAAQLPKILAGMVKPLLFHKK
Put plainly: Progesterone receptor antagonistic effect in stably transfected SK-N-MC cells, MTV-LUC reporter (PR-A). The format is cell-based. The note with it: antagonism of 0.1 nmol/l promegestone, luciferase reporter, 24 hours. On the procedure:
Progesterone Receptor Antagonistic Effect in Stable Transfectants of Human Neuroblastoma Cells (SK-N-MC cells) with the Human Progesterone A or Progesterone B Receptor and a MTV-LUC Reporter Construct
SK-N-MC cells (human neuroblastoma cells), which have been stably transfected with plasmids which express the human progesterone receptor B (pRChPR-B-neo) or the human progesterone receptor A (pRChPR-A-neo) and a reporter construct (pMMTV-LUC), were incubated for 24 hours either in the absence (negative control) or in the presence of increasing amounts of the particular test compound (0.01 nmol/l, 0.1 nmol/l, 1 nmol/l, 10 nmol/l, 100 nmol/l and 1 μmol/l) in order to determine the agonistic efficacy. As a positive control of the reporter gene induction, the cells were treated with the synthetic gestagen promegestone (0.01 nmol/l, 0.1 nmol/l, 1 nmol/l, 10 nmol/l, 100 nmol/l and 1 μmol/l). To determine the antagonistic activity, the cells were treated with 0.1 nmol/l of promegestone and additionally with increasing amounts of the particular test compound (0.01 nmol/l, 0.1 nmol/l, 1 nmol/l, 10 nmol/l, 100 nmol/l and 1 μmol/l). The activity of the reporter gene LUC (LUC=luciferase) was determined in the cell lysates and measured as RLU (relative light units). All measurement values are given as percentage efficacy and as EC50 or IC50 concentrations.
Turning to `C[C@]12C[C@H](c3ccc(CNc4ccc(S(N)(=O)=O)cc4)cc3)C3=C4CCC(=O)C=C4CC[C@H]3[C@@H]1CC[C@@]2(O)C(F)(F)C(F)(F)F` [Example 18, 4-({4-[(11β,17β)-17-Hydroxy-3-oxo-17-(pentafluoroethyl)estra-4,9-dien-11-yl]benzyl}amino)benzenesulphonamide], the half-inhibitory concentration (IC50) is 0.51 nM. Regarding `COC(=O)c1ccccc1NCc1ccc([C@H]2C[C@@]3(C)[C@@H](CC[C@@]3(O)C(F)(F)C(F)(F)F)[C@@H]3CCC4=CC(=O)CCC4=C32)cc1` [Example 28, Methyl 2-({4-[(11β,17β)-17-hydroxy-3-oxo-17-(pentafluoroethyl)estra-4,9-dien-11-yl]benzyl}amino)benzoate], the IC50 worked out at 5.05 nM.

In turn, `C[C@]12C[C@H](c3ccc(CN4CCC(c5ccccc5)CC4)cc3)C3=C4CCC(=O)C=C4CC[C@H]3[C@@H]1CC[C@@]2(O)C(F)(F)C(F)(F)F` [Example 41, (11β,17β)-17-Hydroxy-17-(pentafluoroethyl)-11-{4-[(4-phenylpiperidin-1-yl)methyl]phenyl}estra-4,9-dien-3-one] had a 50% inhibitory concentration (IC50) of 11.2 nM. The result for `COC(=O)c1cccc(NCc2ccc([C@H]3C[C@@]4(C)[C@@H](CC[C@@]4(O)C(F)(F)C(F)(F)F)[C@@H]4CCC5=CC(=O)CCC5=C43)cc2)c1` [Example 39, Methyl 3-({4-[(11β,17β)-17-hydroxy-3-oxo-17-(pentafluoroethyl)estra-4,9-dien-11-yl]benzyl}amino)benzoate] reads 1.77 nM.

The compound `C[C@]12C[C@H](c3ccc(CN4CCN(Cc5cccnc5)CC4)cc3)C3=C4CCC(=O)C=C4CC[C@H]3[C@@H]1CC[C@@]2(O)C(F)(F)C(F)(F)F` [Example 44, (11β,17β)-17-Hydroxy-17-(pentafluoroethyl)-11-(4-{[4-(pyridin-3-ylmethyl)piperazin-1-yl]methyl}phenyl)estra-4,9-dien-3-one] registered an IC50 of 3.06 nM. The result for `C[C@]12C[C@H](c3ccc(CNc4ccc(C(=O)Nc5ccccc5)cc4)cc3)C3=C4CCC(=O)C=C4CC[C@H]3[C@@H]1CC[C@@]2(O)C(F)(F)C(F)(F)F` [Example 54, 4-({4-[(11β,17β)-17-Hydroxy-3-oxo-17-(pentafluoroethyl)estra-4,9-dien-11-yl]benzyl}amino)-N-phenylbenzamide] reads 1.28 nM; that for `C[C@]12C[C@H](c3ccc(CN4CCCC4)cc3)C3=C4CCC(=O)C=C4CC[C@H]3[C@@H]1CC[C@@]2(O)C(F)(F)C(F)(F)F` [Example 46, (11β,17β)-17-Hydroxy-17-(pentafluoroethyl)-11-[4-(pyrrolidin-1-ylmethyl)phenyl]estra-4,9-dien-3-one], 37.4 nM; that for `COc1ccccc1NCc1ccc([C@H]2C[C@@]3(C)[C@@H](CC[C@@]3(O)C(F)(F)C(F)(F)F)[C@@H]3CCC4=CC(=O)CCC4=C32)cc1` [Example 21, (11β,17β)-17-Hydroxy-11-(4-{[(2-methoxyphenyl)amino]methyl}phenyl)-17-(pentafluoroethyl)estra-4,9-dien-3-one], 6.06 nM. Turning to `CNC(=O)CN1CCN(Cc2ccc([C@H]3C[C@@]4(C)[C@@H](CC[C@@]4(O)C(F)(F)C(F)(F)F)[C@@H]4CCC5=CC(=O)CCC5=C43)cc2)CC1` [Example 45, 2-(4-{4-[(11β,17β)-17-Hydroxy-3-oxo-17-(pentafluoroethyl)estra-4,9-dien-11-yl]benzyl}piperazin-1-yl)-N-methylacetamide], inhibition was half-maximal at 1.65 nM (IC50). With `CN(Cc1ccc([C@H]2C[C@@]3(C)[C@@H](CC[C@@]3(O)C(F)(F)C(F)(F)F)[C@@H]3CCC4=CC(=O)CCC4=C32)cc1)c1ccccc1` [Example 48, (11β,17β)-17-Hydroxy-11-(4-{[methyl(phenyl)amino]methyl}phenyl)-17-(pentafluoroethyl)estra-4,9-dien-3-one] the figure was 1.28 nM; with `CN(CCc1ccccn1)Cc1ccc([C@H]2C[C@@]3(C)[C@@H](CC[C@@]3(O)C(F)(F)C(F)(F)F)[C@@H]3CCC4=CC(=O)CCC4=C32)cc1` [Example 52, (11β,17β)-17-Hydroxy-11-[4-({methyl[2-(pyridin-2-yl)ethyl]amino}methyl)phenyl]-17-(pentafluoroethyl)estra-4,9-dien-3-one], 6.5 nM; with `COc1cccc(NCc2ccc([C@H]3C[C@@]4(C)[C@@H](CC[C@@]4(O)C(F)(F)C(F)(F)F)[C@@H]4CCC5=CC(=O)CCC5=C43)cc2)c1` [Example 22, (11β,17β)-17-Hydroxy-11-(4-{[(3-methoxyphenyl)amino]methyl}phenyl)-17-(pentafluoroethyl)estra-4,9-dien-3-one], 2.52 nM. `C[C@]12C[C@H](c3ccc(CNc4ccc(Cl)cc4)cc3)C3=C4CCC(=O)C=C4CCC3C1CC[C@@]2(O)C(F)(F)C(F)(F)F` (stereo partly drawn) [Example 23, (11β,17β)-11-(4-{[(4-Chlorophenyl)amino]methyl}phenyl)-17-hydroxy-17-(pentafluoroethyl)estra-4,9-dien-3-one] displayed an IC50 of 2.07 nM. `CN(CCc1ccccc1)Cc1ccc([C@H]2C[C@@]3(C)[C@@H](CC[C@@]3(O)C(F)(F)C(F)(F)F)[C@@H]3CCC4=CC(=O)CCC4=C32)cc1` [Example 33, (11β,17β)-17-Hydroxy-11-(4-{[methyl(2-phenylethyl)amino]methyl}phenyl)-17-(pentafluoroethyl)estra-4,9-dien-3-one]: the half-maximal inhibitory concentration (IC50) was 5.57 nM. Compared with the last compound, the IC50 is about 2.7-fold higher.

Compound `C[C@]12C[C@H](c3ccc(CNc4ccccc4)cc3)C3=C4CCC(=O)C=C4CCC3C1CC[C@@]2(O)C(F)(F)C(F)(F)F` (stereo partly drawn) [Example 20, (11β,17β)-11-[4-(Anilinomethyl)phenyl]-17-hydroxy-17-(pentafluoroethyl)estra-4,9-dien-3-one] came in with an IC50 of 1.64 nM. The result for `COC(=O)c1ccc(NCc2ccc([C@H]3C[C@@]4(C)[C@@H](CC[C@@]4(O)C(F)(F)C(F)(F)F)[C@@H]4CCC5=CC(=O)CCC5=C43)cc2)cc1` [Example 29, Methyl 4-({4-[(11β,17β)-17-hydroxy-3-oxo-17-(pentafluoroethyl)estra-4,9-dien-11-yl]benzyl}amino)benzoate] reads 1.19 nM. With `C[C@]12C[C@H](c3ccc(CN4CCN(CCN5CCCC5)CC4)cc3)C3=C4CCC(=O)C=C4CC[C@H]3[C@@H]1CC[C@@]2(O)C(F)(F)C(F)(F)F` [Example 36, (11β,17β)-17-Hydroxy-17-(pentafluoroethyl)-11-[4-({4-[2-(pyrrolidin-1-yl)ethyl]piperazin-1-yl}methyl)phenyl]estra-4,9-dien-3-one] the figure was 33.7 nM; with `C[C@]12C[C@H](c3ccc(CN4CCN(CCc5ccccc5)CC4)cc3)C3=C4CCC(=O)C=C4CC[C@H]3[C@@H]1CC[C@@]2(O)C(F)(F)C(F)(F)F` [Example 34, (11β,17β)-17-Hydroxy-17-(pentafluoroethyl)-11-(4-{[4-(2-phenylethyl)piperazin-1-yl]methyl}phenyl)estra-4,9-dien-3-one], 5.55 nM; with `C[C@]12C[C@H](c3ccc(CNc4cccnc4)cc3)C3=C4CCC(=O)C=C4CC[C@H]3[C@@H]1CC[C@@]2(O)C(F)(F)C(F)(F)F` [Example 19, (11β,17β)-17-Hydroxy-17-(pentafluoroethyl)-11-{4-[(pyridin-3-ylamino)methyl]phenyl}estra-4,9-dien-3-one], 0.94 nM.
